Assay: Stability test of Crystalline Form F of Nintedanib (XRPD after storage)
Format: physicochemical
Details: polyethylene bag in desiccator, no humidity control, room temperature, three months; FIG. 15 before, FIG. 23 after
Method: In each example, XRPD experiment was conducted using a Bruker D8 advance diffractometer, with a Cu Ka (wavelength 1.54056 Å) filled tube (40 kV, 40 mA) as the X-ray source having a wide angle goniometer, a 0.6 mm divergent slit, a 2.5° primary Sola slit, a 2.5° secondary Sola slit, an 8 mm anti-scattering slit, a 0.1 mm detector slit, and Lynx Eye detector, at room temperature. In a 2θ continuous scanning mode, the data acquisition was completed with a scanning speed of 2.4°/min and a scanning step of 0.02° in the range of 3° to 40°.
Crystalline Form F of Nintedanib obtained with the preparation method in Example 5 was placed in a polyethylene plastic bag, the plastic bag was then placed in a desiccator with no humidity control at room temperature for three months (from April 12 to July 12).

With COC(=O)c1ccc2c(c1)NC(=O)/C2=C(\Nc1ccc(N(C)C(=O)CN2CCN(C)CC2)cc1)c1ccccc1 [Crystalline Form F, 3-Z-[1-(4-(N-((4-methyl-piperazin-1-yl)-methylcarbonyl)-N-methyl-amino)-phenylamino)-1-phenyl-methylene]-6-methoxycarbonyl-2-indolinone] as the molecule, how does the “crystalline form by XRPD after storage (stability of Crystalline Form F)” value read?
The value was “all the measurements showed a result of Crystalline Form F”.

From patent US10961203B2, “Crystalline forms of 3-Z-[1-(4-(N-((4-methyl-piperazin-1-yl)-methylcarbonyl)-N-methyl-amino)-phenylamino)-1-phenyl-methylene]-6-methoxycarbonyl-2-indolinone” (Allgenesis Biotherapeutics Inc., priority 2017, dated 2021)
